Numbered stars: 1 amine (or outer) side, 2 acyl side, 3 side chain; on linkers, the order of the positions; unused ones are H or OH. Square brackets hold non-standard residues; d marks the D form. Peptide text beside a SMILES is read from it. NH(CH2CH2O)6CH2CO = O=C(COCCOCCOCCOCCOCCOCCN[*:1])[*:2]; pY = N[C@@H](Cc1ccc(OP(=O)(O)O)cc1)C(=O)O; X1 = O=C(c1ccc(C#CCN[*:1])cc1)[*:2]
What was measured:
[1] = biological target: T1, Tyrosine-protein kinase SYK (Homo sapiens, UniProt P43405); assay: Binding affinity for Syk tandem SH2 domain in surface plasmon resonance assay (SPR)
[2] = biological target: T1, Tyrosine-protein kinase SYK; assay: Dissociation binding constant for Syk tandem SH2 domain

Row | SMILES | IC50 [1] | Kd [2]
1 | CC(=O)N[C@@H](Cc1ccc(OP(=O)(O)O)cc1)C(=O)N[C@@H](CCC(=O)O)C(=O)N[C@H](C(=O)N[C@@H](CC(C)C)C(N)=O)[C@@H](C)O (Ac-[pY]ETL-NH2) | 570000 nM | 166000 nM
2 | CC(=O)N[C@@H](Cc1ccc(OP(=O)(O)O)cc1)C(=O)N[C@H](C(=O)NCC(=O)N[C@@H](CC(C)C)C(=O)N[C@@H](CC(N)=O)C(=O)N[C@H](C(=O)N[C@@H](CCCN=C(N)N)C(=O)N[C@@H](CO)C(=O)N[C@@H](CCC(N)=O)C(=O)N[C@@H](CCC(=O)O)C(=O)N[C@H](C(=O)N[C@@H](Cc1ccc(OP(=O)(O)O)cc1)C(=O)N[C@@H](CCC(=O)O)C(=O)N[C@H](C(=O)N[C@@H](CC(C)C)C(N)=O)[C@@H](C)O)[C@@H](C)O)[C@@H](C)O)[C@@H](C)O (Ac-[pY]TGLNTRSQET[pY]ETL-NH2) | 130 nM | 37 nM
3 | CC(=O)N[C@@H](Cc1ccc(OP(=O)(O)O)cc1)C(=O)N[C@H](C(=O)NCC(=O)N[C@@H](CC(C)C)C(=O)NCCOCCOCCOCCOCCOCCOCC(=O)N[C@@H](Cc1ccc(OP(=O)(O)O)cc1)C(=O)N[C@@H](CCC(=O)O)C(=O)N[C@H](C(=O)N[C@@H](CC(C)C)C(N)=O)[C@@H](C)O)[C@@H](C)O (Ac-[pY]TGL[NH(CH2CH2O)6CH2CO][pY]ETL-NH2) | 1200 nM | 340 nM
4 | CC(=O)N[C@@H](Cc1ccc(OP(=O)(O)O)cc1)C(=O)N[C@H](C(=O)NCC(=O)N[C@@H](CC(C)C)C(=O)NCC(=O)NCC#Cc1ccc(C(=O)NCC(=O)N[C@@H](Cc2ccc(OP(=O)(O)O)cc2)C(=O)N[C@@H](CCC(=O)O)C(=O)N[C@H](C(=O)N[C@@H](CC(C)C)C(N)=O)[C@@H](C)O)cc1)[C@@H](C)O (Ac-[pY]TGLG[X1]G[pY]ETL-NH2) | 62000 nM | 4000 nM
5 | CC(=O)N[C@@H](Cc1ccc(OP(=O)(O)O)cc1)C(=O)N[C@H](C(=O)NCC(=O)N[C@@H](CC(C)C)C(=O)NCC#Cc1ccc(C(=O)NCC#Cc2ccc(C(=O)N[C@@H](Cc3ccc(OP(=O)(O)O)cc3)C(=O)N[C@@H](CCC(=O)O)C(=O)N[C@H](C(=O)N[C@@H](CC(C)C)C(N)=O)[C@@H](C)O)cc2)cc1)[C@@H](C)O (Ac-[pY]TGL[X1][X1][pY]ETL-NH2) | 100 nM | 29 nM

Reference: ChEMBL document CHEMBL1136671, “Amino propynyl benzoic acid building block in rigid spacers of divalent ligands binding to the Syk SH2 domains with equally high affinity as the natural ligand” (Bioorg Med Chem Lett, 2003)
